Reference: the supplement of paper PMC11061612

Key:
Experiment in all cases: Bliss excess, mean over the matrix (fraction); higher = more synergy
[1] = test system: EW-22 (Ewing's Sarcoma)
In short: (§1)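 Cell lines in DMEM/F12 or RPMI with 10% FBS were plated in 1536-well plates, held 24 hours at 37°C, 5% CO2, then given two-drug dose matrices for 72 hours (DMSO typically 0.2%). Viability was read by CellTiter-Glo 2.0 luminescence and scaled as inhibition from 0 (vehicle wells) to 1 (blank wells). Combination Emax is the second-highest inhibition in the matrix; Bliss excess is observed combination effect minus expected EA + EB − EA·EB, EA and EB being single-agent effects.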

[2] = test system: EFM-192A (Breast Carcinoma)
In short: as §1

[3] = test system: SK-MEL-1 (Melanoma)
In short: as §1

[4] = test system: HuO9 (Osteosarcoma)
In short: as §1

[5] = test system: KG-1 (Acute Myeloid Leukemia)
In short: as §1

[6] = test system: TYK-nu (Ovarian Carcinoma)
In short: as §1

[7] = test system: RCC10RGB (Kidney Carcinoma)
In short: as §1

[8] = test system: SW48 (Colorectal Carcinoma)
In short: as §1

[9] = test system: MEG-01 (Chronic Myelogenous Leukemia)
In short: as §1

[10] = test system: CAL-39 (Other Solid Carcinomas)
In short: as §1

[11] = test system: SK-LMS-1 (Other Solid Carcinomas)
In short: as §1

[12] = test system: ETK-1 (Biliary Tract Carcinoma)
In short: as §1

[13] = test system: SNU-61 (Colorectal Carcinoma)
In short: as §1

[14] = test system: D-392MG (Glioblastoma)
In short: as §1

[15] = test system: SLVL (B-Cell Non-Hodgkin's Lymphoma)
In short: as §1

[16] = test system: GDM-1 (Acute Myeloid Leukemia)
In short: as §1

[17] = test system: P31-FUJ (Acute Myeloid Leukemia)
In short: as §1

[18] = test system: SNG-M (Endometrial Carcinoma)
In short: as §1

[19] = test system: MSTO-211H (Mesothelioma)
In short: as §1

[20] = test system: H4 (Low Grade Glioma)
In short: as §1

CC1(C)CCC(CN2CCN(c3ccc(C(=O)NS(=O)(=O)c4ccc(NCC5CCOCC5)c([N+](=O)[O-])c4)c(Oc4cnc5[nH]ccc5c4)c3)CC2)=C(c2ccc(Cl)cc2)C1 [Venetoclax] + CN(C)CCCOc1ccc(-c2ccc3ncc4c(c3c2)n(C2CCOCC2)c(=O)n4C)cn1 [AZD0156] (first compound max 1 µM, 7x7, partner max 1 µM)
Bliss excess [1]: 0.0003
Bliss excess [2]: -0.0508
Bliss excess [3]: -0.0397
Bliss excess [4]: 0.0483
Bliss excess [5]: 0.0741
Bliss excess [6]: -0.0516
Bliss excess [7]: -0.0677
Bliss excess [8]: -0.0216
Bliss excess [9]: -0.0291
Bliss excess [10]: -0.0214
Bliss excess [11]: 0.001
Bliss excess [12]: -0.021
Bliss excess [13]: 0.0062
Bliss excess [14]: -0.0225
Bliss excess [15]: 0.058
Bliss excess [16]: -0.0235
Bliss excess [17]: -0.0179
Bliss excess [18]: -0.06
Bliss excess [19]: -0.0243
Bliss excess [20]: -0.0861

Cn1cnc2c(F)c(Nc3ccc(Br)cc3Cl)c(C(=O)NOCCO)cc21 [Selumetinib] + CCN(CCO)CCCOc1ccc2c(Nc3cc(CC(=O)Nc4cccc(F)c4)[nH]n3)ncnc2c1 [AZD2811] (first compound max 10 µM, 7x7, partner max 1 µM)
Bliss excess [1]: -0.0426
Bliss excess [2]: -0.0285
Bliss excess [3]: 0.0031
Bliss excess [4]: -0.0201
Bliss excess [5]: 0.0789
Bliss excess [6]: -0.0169
Bliss excess [7]: -0.0658
Bliss excess [8]: -0.0168
Bliss excess [9]: -0.0001
Bliss excess [10]: -0.0688
Bliss excess [11]: -0.0047
Bliss excess [12]: -0.0222
Bliss excess [13]: -0.0026
Bliss excess [14]: -0.0304
Bliss excess [15]: -0.0465
Bliss excess [16]: -0.0345
Bliss excess [17]: -0.0136
Bliss excess [18]: -0.0706
Bliss excess [19]: -0.0137
Bliss excess [20]: -0.0091

CN(CCO)CC[C@H](CSc1ccccc1)Nc1ccc(S(=O)(=O)NC(=O)c2ccc(N3CCC([C@@H](O)c4ccccc4-c4ccc(Cl)cc4)CC3)cc2)cc1S(=O)(=O)C(F)(F)F [AZD4320] + CN(C)CCCOc1ccc(-c2ccc3ncc4c(c3c2)n(C2CCOCC2)c(=O)n4C)cn1 [AZD0156] (first compound max 1 µM, 7x7, partner max 1 µM)
Bliss excess [1]: 0.0228
Bliss excess [2]: -0.0468
Bliss excess [3]: -0.0254
Bliss excess [4]: 0.0143
Bliss excess [5]: 0.0215
Bliss excess [6]: -0.1
Bliss excess [7]: -0.09
Bliss excess [8]: -0.0545
Bliss excess [9]: -0.0262
Bliss excess [10]: -0.0247
Bliss excess [11]: -0.0477
Bliss excess [12]: -0.0509
Bliss excess [13]: -0.0248
Bliss excess [14]: -0.044
Bliss excess [15]: -0.0117
Bliss excess [16]: -0.0248
Bliss excess [17]: 0.0814
Bliss excess [18]: -0.0467
Bliss excess [19]: 0.0078
Bliss excess [20]: -0.0334

CCc1c2c(nc3ccc(O)cc13)-c1cc3c(c(=O)n1C2)COC(=O)[C@]3(O)CC [SN-38] + CN(C)CCCOc1ccc(-c2ccc3ncc4c(c3c2)n(C2CCOCC2)c(=O)n4C)cn1 [AZD0156] (first compound max 0.3 µM, 7x7, partner max 1 µM)
Bliss excess [1]: 0.0276
Bliss excess [2]: -0.0268
Bliss excess [3]: -0.0583
Bliss excess [4]: 0.0365
Bliss excess [5]: -0.0585
Bliss excess [6]: -0.0182
Bliss excess [7]: -0.0262
Bliss excess [8]: 0.098
Bliss excess [9]: -0.0413
Bliss excess [10]: -0.0039
Bliss excess [11]: 0.0274
Bliss excess [12]: 0.0083
Bliss excess [13]: -0.0134
Bliss excess [14]: 0.0957
Bliss excess [15]: 0.0191
Bliss excess [16]: -0.0216
Bliss excess [17]: 0.0647
Bliss excess [18]: -0.0353
Bliss excess [19]: 0.0527
Bliss excess [20]: -0.0255

COc1cccc(OCCCN)c1-c1cc(Nc2cnc(C#N)cn2)n[nH]1 [Prexasertib] + CCc1c2c(nc3ccc(O)cc13)-c1cc3c(c(=O)n1C2)COC(=O)[C@]3(O)CC [SN-38] (first compound max 1 µM, 7x7, partner max 0.3 µM)
Bliss excess [1]: -0.0916
Bliss excess [2]: 0.0304
Bliss excess [3]: -0.0593
Bliss excess [4]: -0.0301
Bliss excess [5]: -0.0454
Bliss excess [6]: -0.0899
Bliss excess [7]: -0.081
Bliss excess [8]: -0.0333
Bliss excess [9]: -0.0073
Bliss excess [10]: -0.0308
Bliss excess [11]: -0.0239
Bliss excess [12]: 0.0465
Bliss excess [13]: 0.0163
Bliss excess [14]: -0.11
Bliss excess [15]: -0.0258
Bliss excess [16]: -0.0108
Bliss excess [17]: -0.0507
Bliss excess [18]: -0.0534
Bliss excess [19]: -0.0857
Bliss excess [20]: -0.0544

COc1nnc2ccc(N3CCC(c4ccc(OCCN5CCN(C)C(=O)[C@H]5C)cc4)CC3)nn12 [AZD5153] + CC1(C)CCC(CN2CCN(c3ccc(C(=O)NS(=O)(=O)c4ccc(NCC5CCOCC5)c([N+](=O)[O-])c4)c(Oc4cnc5[nH]ccc5c4)c3)CC2)=C(c2ccc(Cl)cc2)C1 [Venetoclax] (first compound max 1 µM, 7x7, partner max 1 µM)
Bliss excess [1]: -0.0176
Bliss excess [2]: -0.0257
Bliss excess [3]: 0.0777
Bliss excess [4]: -0.0198
Bliss excess [5]: 0.163
Bliss excess [6]: -0.0887
Bliss excess [7]: -0.0296
Bliss excess [8]: -0.0081
Bliss excess [9]: -0.0627
Bliss excess [10]: -0.0432
Bliss excess [11]: -0.0641
Bliss excess [12]: -0.11
Bliss excess [13]: -0.0374
Bliss excess [14]: -0.0961
Bliss excess [15]: -0.0277
Bliss excess [16]: 0.0348
Bliss excess [17]: -0.0447
Bliss excess [18]: -0.0875
Bliss excess [19]: -0.111
Bliss excess [20]: 0.033
